The results in this text go back to ChEMBL document CHEMBL4340567, “Generation of C5-desoxy analogs of tetrahydroisoquinoline alkaloids exhibiting potent DNA alkylating ability” (Bioorg Med Chem Lett, 2019).

A short description of assay [1]: Induction of alkylation in fluorescein-labelled 5'-GGG-3' double stranded DNA (unknown origin) at 100 uM incubated for 30 mins by EMSA relative to control.
Assay [2] can be described thus: Induction of alkylation in fluorescein-labelled 5'-GGC-3' double stranded DNA (unknown origin) at 100 uM incubated for 30 mins by EMSA relative to control.
Assay [3] is described as follows: Induction of alkylation in fluorescein-labelled 5'-CGG-3' double stranded DNA (unknown origin) at 100 uM incubated for 30 mins by EMSA relative to control.
Assay [4] is described as follows: Induction of alkylation in fluorescein-labelled 5'-AGC-3' double stranded DNA (unknown origin) at 100 uM incubated for 30 mins by EMSA relative to control.
Assay [5] in a line: Induction of alkylation in fluorescein-labelled 5'-AGT-3' double stranded DNA (unknown origin) at 100 uM incubated for 30 mins by EMSA relative to control.
Assay [6] can be described thus: Induction of alkylation in fluorescein-labelled 5'-ATA-3' double stranded DNA (unknown origin) at 100 uM incubated for 30 mins by EMSA relative to control.
A short description of assay [7]: Binding affinity to FAM-labelled 5'-GGG-3' double stranded DNA (unknown origin) assessed as migration of compound from 5'-AGT-3' to 5'-GGC-3' at 100 uM incubated for 30 mins by EMSA.
Assay [8] in a line: Induction of alkylation in fluorescein-labelled 5'-GGG-3' double stranded DNA (unknown origin) at 2.5 uM incubated for 30 mins by EMSA relative to control.
The nature of assay [9]: Induction of alkylation in fluorescein-labelled 5'-GGG-3' double stranded DNA (unknown origin) at 5 uM incubated for 30 mins by EMSA relative to control.
A short description of assay [10]: Induction of alkylation in fluorescein-labelled 5'-GGG-3' double stranded DNA (unknown origin) at 10 uM incubated for 30 mins by EMSA relative to control.
Assay [11] is described as follows: Induction of alkylation in fluorescein-labelled 5'-GGG-3' double stranded DNA (unknown origin) at 25 uM incubated for 30 mins by EMSA relative to control.
Assay [12] can be described thus: Induction of alkylation in fluorescein-labelled 5'-GGG-3' double stranded DNA (unknown origin) at 50 uM incubated for 30 mins by EMSA relative to control.
Assay [13] can be described thus: Reversible binding affinity to fluorescein-labelled 5'-GGG-3' double stranded DNA (unknown origin) at 100 uM incubated for 30 mins in presence of KCN by EMSA.
Assay [14] is described as follows: Induction of alkylation in fluorescein-labelled 5'-GGG-3' double stranded DNA (unknown origin) incubated for 30 mins by EMSA relative to control.
The nature of assay [15]: Binding affinity to fluorescein-labelled 5'-GGG-3' double stranded DNA (unknown origin) assessed as formation of compound-dsDNA oligomer complex at five equivalents incubated for 30 mins by EMSA relative to control.

Calls of active or inactive are those of the source. The rule behind the calls is not given here. A value given as a limit tells only on which side of the number the result lay.

In [1], `COc1c(C)cc2c(c1O)[C@@H]1[C@@H]3Cc4cc(C)c(OC)c(O)c4[C@H](CNC(=O)[C@H](C)NC(=O)OCC4c5ccccc5-c5ccccc54)N3[C@@H](C#N)[C@H](C2)N1C` gave an Activity of 22%.
As to `COC1=C(C)C(=O)C2=C(C1=O)[C@H](CNC(=O)[C@H](C)N)N1[C@@H](C#N)[C@@H]3Cc4cc(C)c(OC)c(O)c4[C@H]([C@@H]1C2)N3C`, the Activity in assay [1] amounted to 31%; in assay [2], 53%; in assay [3], 33%; in [4], 17%. The outcome in [5] and in assay [6] was inactive.
In assay [1], `C=CCOC(=O)N[C@@H](C)C(=O)NC[C@H]1c2c(cc(C)c(OC)c2O)C[C@H]2[C@H]3c4c(cc(C)c(OC)c4O)C[C@@H]([C@H](C#N)N12)N3C` displayed an Activity of 86%.
Consider `COc1c(C)cc2c(c1O)[C@@H]1[C@@H]3Cc4cc(C)c(OC)c(O)c4[C@H](CNC(=O)[C@H](C)N)N3[C@@H](C#N)[C@H](C2)N1C`, for which the outcome in assay [7] and in assay [13] was Active. Besides, the Activity is 10% in [8]; 41% in assay [9]; 85% in assay [10]; greater than 95% in [11]; greater than 95% in assay [12]; greater than 90% in assay [1]. Besides, the Activity was 94% in [2]; 63% in assay [3]; 80% in assay [4]; 36% in assay [5]; “Dose-dependent effect” in [14]; greater than 95% in [15]. Besides, in [6], the result was inactive.
Take `CCCCCCCCC/C=C/COC(=O)N[C@@H](C)C(=O)NC[C@H]1c2c(cc(C)c(OC)c2O)C[C@H]2[C@H]3c4c(cc(C)c(OC)c4O)C[C@@H]([C@H](C#N)N12)N3C`: in assay [1], the outcome was inactive.
